Reference: ChEMBL document CHEMBL5390237, “Discovery of Selective Histone Deacetylase 1 and 2 Inhibitors: Screening of a Focused Library Constructed by Click Chemistry, Kinetic Binding Analysis, and Biological Evaluation” (J Med Chem, 2023)
The source made the active and inactive calls. The calls are words filed in the database; no cut-off is given here.

Experiments:
[1] = tested on: Mus musculus; assay: Neuroprotective activity in BALB/c mouse assessed as increase in spine density in granule neuron dendrites at 1 uM,SCi administered through osmotic minipumps incubated for 48 hrs by bright-field microscopy; type: functional, organism-based
[2] = tested on: N2a; assay: Induction of neurite outgrowth in mouse Neuro2a cells assessed as percentage of neurite-bearing cells at 20 to 2000 nM incubated for 48 hrs by microscopy; type: functional, cell-based; conditions: dose 20-2000 nM

## Nc1ccc(-c2cccs2)cc1NC(=O)c1ccc(-c2cn(CS(=O)(=O)c3ccccc3)nn2)cc1
[1]
  Activity: Active
[2]
  Activity: Active
